These are literature values, as cited in patent US8518957B2, “Methanocarba adenosine derivatives, pharmaceutical compositions, and method of reducing intraocular pressure” (The United States of America, as represented by the …, priority 2009, dated 2013).

Molecules are shown by their SMILES.

For one data set, the target named is T1, human A3AR (Homo sapiens, UniProt P0DMS8).
T1 construct: expressed in transfected cells
T1 sequence (P0DMS8 1-318): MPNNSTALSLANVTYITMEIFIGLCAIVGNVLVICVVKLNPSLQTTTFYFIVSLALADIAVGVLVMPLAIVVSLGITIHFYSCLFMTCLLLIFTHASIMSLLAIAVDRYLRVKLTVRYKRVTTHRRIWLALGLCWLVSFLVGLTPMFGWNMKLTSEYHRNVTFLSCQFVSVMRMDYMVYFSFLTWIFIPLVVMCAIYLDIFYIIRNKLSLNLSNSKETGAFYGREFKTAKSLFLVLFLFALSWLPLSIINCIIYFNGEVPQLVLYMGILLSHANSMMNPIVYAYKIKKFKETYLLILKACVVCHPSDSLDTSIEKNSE
The conditions noted are these: model compounds; values from Tosh et al. and Melman et al.; read-out: Affinity (Ki, nM), A3; cited from earlier work.

For a further data set, the target named is T2, hA2AAR (Homo sapiens, UniProt P29274).
T2 construct: expressed in transfected cells
The conditions noted are these: at 10 μM; model compounds; values from Tosh et al. and Melman et al.; cited from earlier work.

The target in a further data set is T3, human A1 AR (Homo sapiens, UniProt P30542).
T3 construct: expressed in transfected cells
T3 sequence (P30542 1-326): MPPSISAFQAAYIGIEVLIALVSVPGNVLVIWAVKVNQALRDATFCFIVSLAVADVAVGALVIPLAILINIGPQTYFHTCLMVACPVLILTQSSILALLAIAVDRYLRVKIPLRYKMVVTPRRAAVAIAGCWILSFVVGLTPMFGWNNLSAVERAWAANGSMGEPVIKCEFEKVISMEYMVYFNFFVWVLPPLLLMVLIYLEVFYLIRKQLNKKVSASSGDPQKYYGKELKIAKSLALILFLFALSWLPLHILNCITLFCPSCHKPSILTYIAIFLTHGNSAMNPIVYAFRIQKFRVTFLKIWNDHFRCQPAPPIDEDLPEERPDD
The following applies: model compounds; values from Tosh et al. and Melman et al.; read-out: Affinity (Ki, nM), A1; cited from earlier work.

T2 sequence (P29274 whole entry): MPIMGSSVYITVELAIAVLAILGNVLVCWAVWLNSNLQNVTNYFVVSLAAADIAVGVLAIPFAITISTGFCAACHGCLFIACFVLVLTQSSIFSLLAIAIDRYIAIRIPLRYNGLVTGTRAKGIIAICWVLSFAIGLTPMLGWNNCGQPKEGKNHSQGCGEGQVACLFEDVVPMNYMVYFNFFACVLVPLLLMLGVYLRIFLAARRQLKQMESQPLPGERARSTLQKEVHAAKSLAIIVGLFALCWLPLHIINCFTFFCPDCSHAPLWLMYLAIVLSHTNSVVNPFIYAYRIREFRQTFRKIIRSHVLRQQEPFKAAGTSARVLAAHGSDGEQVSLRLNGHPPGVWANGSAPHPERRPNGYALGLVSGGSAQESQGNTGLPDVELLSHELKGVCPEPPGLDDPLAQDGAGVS

For the compound `CNC(=O)C12CC1C(n1cnc3c(NCc4cccc(C#CCCCCC(=O)NCCNC(C)=O)c4)nc(Cl)nc31)C(O)C2O` (stereo not drawn) [Compound 104c], the Ki at human A3AR is 228 nM; at human A1 AR, 181 nM. In addition, at hA2AAR, the “% inhibition, A2A” value is reported as “(80%)”.

One may read the Ki as the dissociation constant of the complex between target and ligand, obtained from inhibition or displacement.
